Results published in publication PMC11365428 (The Journal of Biological Chemistry, 2024).
Non-standard residues stand in square brackets, D forms with d. Residues, ends and D or L forms follow the SMILES beside them. pGlu = O=C1CC[C@@H](C(=O)O)N1

Target: T1, apTKRPR-A (Aplysia californica, UniProt A0AAU7SSZ1)
T1 sequence (A0AAU7SSZ1 1-398): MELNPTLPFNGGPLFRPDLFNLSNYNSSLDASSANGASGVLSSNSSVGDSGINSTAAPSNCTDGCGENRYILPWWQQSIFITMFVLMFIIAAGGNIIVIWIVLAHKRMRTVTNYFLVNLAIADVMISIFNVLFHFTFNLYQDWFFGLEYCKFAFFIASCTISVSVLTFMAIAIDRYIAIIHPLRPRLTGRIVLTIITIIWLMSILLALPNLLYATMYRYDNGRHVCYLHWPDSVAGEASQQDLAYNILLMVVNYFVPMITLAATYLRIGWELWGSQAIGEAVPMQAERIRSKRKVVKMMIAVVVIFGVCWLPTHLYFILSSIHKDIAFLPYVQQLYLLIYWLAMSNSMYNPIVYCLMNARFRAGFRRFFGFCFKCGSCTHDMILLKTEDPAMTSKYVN
Test: Receptor desensitization assay, protocol 2 (repeated agonist exposure), apTKRPR-A
Assay type: cell-based
Settings: 10 μM pretreatment 2-60 min without LiCl, wash, second 10 μM application for 15 min with LiCl; % of control; n = 5
Description: Therefore, we adopted two protocols to study the desensitization of apTKRPRs. The protocols were performed using a procedure modified from previous work ([87], [88], [89]).
Protocol 2 ([89]): To simulate repeated stimulation with an agonist, we examined agonist-induced desensitization by quantifying the accumulation level of IP1 after two applications of the agonist/ligand. Because the IP1 accumulation assay involves using LiCl to stop the degradation of IP1, in this protocol, LiCl was applied only during the second application of the agonist. Specifically, to elicit desensitization, cells were first exposed to 10 μM apTKRP-2b in the absence of LiCl for various pretreatment durations (pretreatment stage/phase Ⅰ). After this agonist exposure, cells were washed (three times) rapidly with PBS (phase Ⅱ), and the wash was consistently performed in each experiment. Responsiveness of the receptor was then assessed by measuring intracellular concentrations of IP1 accumulation in response to a second application of 10 μM apTKRP-2b for 15 min in the presence of LiCl (phase Ⅲ) (Fig. S11).

CC(C)C[C@H](NC(=O)[C@H](Cc1c[nH]cn1)NC(=O)[C@@H]1CCCN1C(=O)[C@@H]1CCC(=O)N1)C(=O)NCC(=O)N[C@@H](Cc1ccccc1)C(=O)N[C@@H](Cc1c[nH]cn1)C(=O)NCC(=O)N[C@@H](CO)C(=O)N[C@@H](CCCNC(=N)N)C(N)=O [apTKRP-2b] ([pGlu]PHLGFHGSR-NH2) was tested, and the “IP1 accumulation after pretreatment, apTKRPR-A (protocol 2)” value was “IP1 accumulation was less after the second exposure”.
